Results: patent US12187705B2, “Heteroaryl-triazole and heteroaryl-tetrazole compounds as pesticides” (Bayer Aktiengesellschaft, priority 2018, dated 2025)

How the values were obtained:
Assay type in all cases: in vivo
[1] = system: Spodoptera frugiperda; assay: Spodoptera frugiperda spray test; conditions: in Zea mays, 168 h
How it was run: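 Percent larval kill read at day 7 on Zea mays leaf pieces that were spray-treated and, after drying, infested. Spray preparations made by dilution with emulsifier-containing water (1000 ppm).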

[2] = system: Diabrotica balteata; assay: Diabrotica balteata spray test; conditions: Diabrotica balteata, 168 h; 160 μg/well, wheat seeds, after 7 days; read-out: efficacy (seedlings grown)
How it was run: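 Efficacy (%) read 7 days after infesting treated seedlings with 10-20 banded cucumber beetle larvae, 100% meaning growth as in uninfected untreated control and 0% no growth. Test solutions in water containing 1000 ppm emulsifier were sprayed onto wheat seeds germinated for 1 day on agar.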

[3] = system: Myzus persicae; assay: Myzus persicae oral test; conditions: 120 h
How it was run: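 Feeding test: compound diluted in water was combined with IPL41 insect medium (33%+15% sugar) under a parafilm seal. A mixed population of green peach aphids fed through the membrane. Mortality (%) was scored after 5 days.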

[4] = system: Nezara viridula; assay: Nezara viridula spray test; conditions: in Hordeum vulgare, 96 h
How it was run: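 Barley plants infested with stink bug larvae were sprayed with compound diluted in water containing 1000 ppm emulsifier. Mortality (%) was scored after 4 days, 100% meaning all bugs killed.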

[5] = system: Ctenocephalides felis; assay: Ctenocephalides felis in-vitro contact test adult cat flea; conditions: Ctenocephalides felis; 5 μg/cm^2 (=500 g/ha), after 48 hours; read-out: efficacy (fleas dead or moribund)
How it was run: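 Efficacy (% dead or moribund) was scored 48 h after adult Ctenocephalides felis were confined in tubes coated with the acetone-applied compound (900 ppm, 5 μg/cm^2). Moribund status was judged by failure to escape a 45-50° C heating plate within 5 minutes.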

[6] = system: Phaedon cochleariae; assay: Phaedon cochleariae spray test; conditions: foliar, 168 h, Chinese cabbage leaf disks, after 7 days
How it was run: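 Mortality read 7 days after infestation; 100% means every larva dead, 0% none. Larvae placed on dried Chinese cabbage leaf disks previously sprayed with compound preparation diluted in emulsifier-containing water (1000 ppm).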

[7] = system: Nilaparvata lugens; assay: Nilaparvata lugens spray test; conditions: Nilaparvata lugens, in Oryza sativa, 96 h
How it was run: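 Rice plants sprayed with compound diluted in water containing 1000 ppm emulsifier, then infested with brown planthopper. Mortality (%) scored after 4 days, 100% meaning all insects killed.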

[8] = system: Tetranychus urticae; assay: Tetranychus urticae spray test OP-resistant; conditions: Tetranychus urticae, foliar, 144 h, French bean leaf disks, after 6 days
Procedure: Tetranychus urticae—Spray Test OP-Resistant
To produce a suitable preparation of active compound, 1 part by weight of active compound is mixed with the stated amount of solvents and is diluted with water, containing an emulsifier concentration of 1000 ppm, to the desired concentration. Further test concentrations are prepared by dilution with emulsifier containing water.
French bean (Phaseolus vulgaris) leaf disks infected with all instars of the two spotted spidermite (Tetranychus urticae), are sprayed with a preparation of the active ingredient of the desired concentration.
After 6 days mortality in % is determined. 100% means all spider mites have been killed and 0% means none of the spider mites have been killed.

[9] = system: Rhipicephalus sanguineus; assay: Rhipicephalus sanguineus in-vitro contact test with adult brown dog ticks; conditions: Rhipicephalus sanguineus; 5 μg/cm^2 (=500 g/ha), after 48 hours; read-out: efficacy (ticks dead or moribund)
Procedure: Rhipicephalus sanguineus—In-Vitro Contact Test with Adult Brown Dog Ticks
9 mg compound is solved in 1 ml acetone and diluted with acetone to the desired concentration. 250 μl of the test solution is filled in 25 ml glass test tubes and homogeneously distributed on the inner walls by rotation and tilting on a shaking device (2 h at 30 rpm). With a compound concentration of 900 ppm, an inner surface of 44.7 cm^2 and a homogeneous distribution, a dose of 5 μg/cm^2 is achieved.
After the solvent has evaporated, each test tube is filled with 5-10 adult brown dog ticks (Rhipicephalus sanguineus), closed with a perforated lid and incubated in a lying position at room temperature and relative humidity. After 48 hours efficacy is determined. The ticks are patted on the ground of the tubes and are incubated on a heating plate at 45-50° C. for at most 5 minutes. Immotile or uncoordinated moving ticks, which are not able to escape the heat by climbing upwards, are marked as dead or moribund.
An efficacy of 100% means all ticks are dead or moribund; 0% means no ticks are dead or moribund.

[10] = system: Ctenocephalides felis; assay: Ctenocephalides felis oral test; conditions: Ctenocephalides felis, in Bos taurus, po, 48 h
How it was run: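 About 20 adult unfed fleas fed through parafilm on cattle blood containing compound (DMSO concentrate diluted in blood); blood held at 37° C., fleas at room temperature. Mortality in % scored after 2 days (100% = all killed).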

[11] = system: Boophilus microplus; assay: Boophilus microplus injection test; conditions: Rhipicephalus microplus, 168 h, 20 μg/animal, egg deposition after 7 days, read-out: efficacy (infertile eggs)
How it was run: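 Efficacy expresses the share of infertile eggs (100% all infertile, 0% all fertile), judged at 7 days or at hatching around day 42. Five adult engorged females were each injected abdominally with 1 μl of DMSO compound solution and incubated in a climate chamber.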

Compound	mortality at 500 g/ha [1] [%]	pest or weed control at 160 µg/disc, 160 µg/well [2] [%]	mortality at 4 ppm [3] [%]	mortality at 20 ppm [3] [%]	mortality at 500 g/ha [4] [%]	pest or weed control at 5 µg/cm2, 5 µg/cm2 [5] [%]	mortality at 500 g/ha [6] [%]	mortality at 500 g/ha [7] [%]	mortality at 500 g/ha [8] [%]	pest or weed control at 5 µg/cm2, 5 µg/cm2 [9] [%]	mortality at 100 ppm [10] [%]	pest or weed control at 0.02 mg [11] [%]
CC(c1ncnn1-c1ncccn1)N(CC1CC1)C(=O)c1cccc(S(=O)(=O)C(F)(F)F)c1 (centres unmarked) [Example I-005, N-(cyclopropylmethyl)-N-{1-[1-(pyrimidin-2-yl)-1H-1,2,4-triazol-5-yl]ethyl}-3-[(trifluoromethyl)sulfonyl]benzamide]	100	100	90	100	100	90	100	100	80			
CC(c1ncnn1-c1ncccn1)N(CC1CC1)C(=O)c1cncc(S(=O)(=O)C(F)(F)F)c1 (centres unmarked) [Example I-006]		100	90	100	100	90	100	100	95	80	100	100
